Test results published in patent publication US7339061B2, “3-(4-oxo-4H-chromen-2-yl)-(1H)-quinolin-4-one derivatives, method for preparing same and pharmaceutical compositions containing same” (Les Laboratoires Servier, priority 2002, dated 2008).

Experiments:
[1] = system: prostate cancer line (LN CaP); test: Apoptotic effect, TUNEL test; format: cell-based; settings: LN CaP cells incubated at the IC50 concentration, 8 to 96 hours; early = 8 hours
Description: Study of the pro-apoptotic effects of compounds of the invention is carried out on a prostate cancer line (LN CaP). The cells were incubated for periods ranging from 8 to 96 hours at the IC50 concentration.
The TUNEL test was then carried out according to the method described by Sgonc in Trends Genetics—1994; 10:41.

[2] = system: Eleven cell lines from cancers of different origins and sites (lung, breast, prostate, colon, blood, bladder, skin, ovary, brain); test: In vitro cytotoxicity, MTT test, 96 hours incubation; format: cell-based; settings: lines to which the stated IC50 range applies
Description: Eleven cell lines from cancers of different origins and sites (lung, breast, prostate, colon, blood, bladder, skin, ovary, brain) are cultured in order to study the various compounds in comparison to the reference substance.
The cells are incubated for 96 hours with various concentrations of compounds of the invention.
The in vitro cytotoxic activity is determined by the MTT [3-(4,5-dimethylthiazol-2-yl)-2,5-diphenyltetrazolium bromide] test as described by Carmichael in Cancer Res.—1987; 47 (4): 936-942.
The activity is expressed in terms of the IC50, that is to say the concentration which inhibits proliferation of the tumour cells by 50%.

breast cancer cells = test: In vitro synergistic effect with anti-cancer agent (MTT test, Chou and Talabay analysis), breast cancer cells; format: cell-based; settings: 96 hours, five concentrations of compound and of anti-cancer agent; method names tamoxifen (TXL) on breast cancer cells
Description: (§1) Three cell lines which are sensitive to three anti-cancer agents are used: breast cancer cells in association with treatment with tamoxifen (TXL), lung cancer cells in association with treatment with cisplatin (CDDP), and colon cancer cells in association with treatment with SN38, a metabolite of CPT-11 (irinotecan).
(§2) The tumour cells are incubated for 96 hours together with five different concentrations of each of the compounds of the invention and five concentrations of each of the anti-cancer agents in association.
(§3) The in vitro cytotoxic activity is determined by the MTT test described in Example 24. Analysis of the data is carried out according to the method of Chou and Talabay, published in Trends Pharmaceutical Sci.—1983; 4:450.

lung cancer cells = test: In vitro synergistic effect with anti-cancer agent (MTT test, Chou and Talabay analysis), lung cancer cells; format: cell-based; settings: 96 hours, five concentrations of compound and of cisplatin (CDDP)
Description: as §1, §2, §3

O=c1cc(-c2cn(-c3ccccc3)c3ccccc3c2=O)oc2cc(O)ccc12 [Example 2, 3-(7-Hydroxy-4-oxo-4H-1-benzopyran-2-yl)-1-phenyl-1H-quinolin-4-one]
melting point: 295 to 300 °C

O=c1c(-c2cc(=O)c3c(O)cccc3o2)cn(-c2ccccc2)c2ccccc12 [Example 6, 3-(5-Hydroxy-4-oxo-4H-1-benzopyran-2-yl)-1-phenyl-1H-quinolin-4-one]
melting point: > 300 °C | apoptosis (TUNEL test) [1]: very high apoptosis

COc1cc(O)c2c(=O)cc(-c3cn(-c4ccccc4)c4ccccc4c3=O)oc2c1 [Example 7, 3-(5-Hydroxy-7-methoxy-4-oxo-4H-1-benzopyran-2-yl)-1-phenyl-1H-quinolin-4-one]
melting point: 295 to 296 °C

O=c1cc(-c2cn(-c3ccccc3)c3ccccc3c2=O)oc2ccccc12 [Example 8, 3-(4-Oxo-4H-1-benzopyran-2-yl)-1-phenyl-1H-quinolin-4-one]
melting point: 327 to 328 °C

COc1cc(OC)c2c(=O)cc(-c3cn(-c4ccccc4)c4ccccc4c3=O)oc2c1C1=CCN(C)CC1 [Example 9, 3-[5,7-Dimethoxy-8-(1-methyl-1,2,5,6-tetrahydropyridin-4-yl)-4-oxo-4H-1-benzopyran-2-yl]-1-phenyl-1H-1,4-dihydroquinolin-4-one]
number of the 11 lines tested with respect to which the compound has cytotoxic activity [2]: 8 of the 11

CN1CC=C(c2c(O)cc(O)c3c(=O)cc(-c4cn(-c5ccccc5)c5ccccc5c4=O)oc23)CC1 [Example 14, 3-[5,7-Dihydroxy-8-(1-methyl-1,2,5,6-tetrahydropyridin-4-yl)4-oxo-4H-1-benzopyran-2-yl]-1-phenyl-1H-1,4-dihydroquinolin-4-one]
number of the 11 lines tested with respect to which the compound has cytotoxic activity [2]: 5 of the 11 | synergistic effect with paclitaxel (breast cancer cells): synergistic effect | synergistic effect with cisplatin (lung cancer cells): synergistic effect

O=c1c(-c2cc(=O)c3c(O)cc(O)c(C4=CCN(Cc5ccccc5)CC4)c3o2)cn(-c2ccccc2)c2ccccc12 [Example 16, 3-[5,7-Dihydroxy-8-(1-benzyl-1,2,5,6-tetrahydropyridin-4-yl)-4-oxo-4H-1-benzopyran-2-yl]-1-phenyl-1H-1,4-dihydroquinolin-4-one]
synergistic effect with paclitaxel (breast cancer cells): synergistic effect | synergistic effect with cisplatin (lung cancer cells): synergistic effect
